The pKa is the negative logarithm of the acid dissociation constant. Lower therefore signals a group that gives up its proton readily.

The molecule `CCCCNc1ccccc1` yielded a pKa (basic group) of 5.11. Where the note is “basic group”, `O=Cc1cccc(C=O)n1` had a pKa of 1.92.

With `O=C(/C=N/O)CCl`, the pKa (acidic group) was 7.9. In turn, `CCC(N)CO` (stereo unspecified) gave a pKa (basic group) of 9.53. As for `OC(CN1CCCC1)C[NH+]1CCCC1`, where the note is “basic group”, the pKa is 7.75. The molecule `Cn1cnc2c([O-])nc(N)nc21` displayed a pKa (basic group) of 9.92. In the case of `N/C(CC([NH3+])c1ccccc1)=N\O` (stereo unspecified), the pKa (basic group) was found to be 3.75. In turn, `CCCNCCN` came in with a pKa (basic group) of 10.3. With `CCOC(=O)C1CCCCC1=O` (stereo unspecified), where the note is “acidic group”, the pKa is 11.9. Consider `CO[C@H]1CC=C2CCN3CC[C@H](CO)/C(=C\CO)[C@]23C1`, for which the pKa (basic group) stood at 8.42. As for `O=C([O-])c1ccc2nc3ccccc3cc2c1`, the pKa (basic group) turned out to be 5.22. Regarding `CNCC[NH2+]C`, the pKa (basic group) turned out to be 7.29. Consider `CN(CCC#N)CCC#N`, for which the pKa (basic group) came out at 4.24.

For the molecule `Oc1nc2nc[nH]c2c[nH+]1`, under “acidic group”, the pKa turned out to be 1.69. In the case of `CCCCCCCN(CCCCCCC)c1ccccc1`, the pKa (basic group) worked out at 3.33. With `c1ccc(-c2ccco2)nc1`, the pKa (basic group) was 4.18. With `Oc1cccc2c1Nc1ccccc1N2`, under “acidic group”, the pKa was determined as 10.9.

Where the note is “acidic group”, `CC(C)=CCC1C(=O)C(C(=O)CC(C)C)C(=O)C(CC=C(C)C)(CC=C(C)C)C1=O` (stereo unspecified) returned a pKa of 6.18. Take `CC(C)CN(C)C`: the pKa (basic group) was 9.91. In the case of `O=C(O)c1cnc(Br)s1`, the pKa (acidic group) turned out to be 2.96. Molecule `CC(C)(C)c1ccccn1` returned a pKa (basic group) of 5.72. `CN(C)CCNCC[NH+](C)C` registered a pKa (basic group) of 8.96. `O=c1[nH]c2ccccc2nc1[O-]` showed a pKa (acidic group) of 12.3. Under “basic group”, `O=C([O-])[C@@H]1CCCN1` showed a pKa of 10.6. Still for that read-out and setting: as for `CCNN`, the figure is 7.95. In turn, `NNCCc1ccccc1` showed a pKa (basic group) of 7.25. For the molecule `CN(C)/C=N/c1ccc(Cl)cc1`, under “basic group”, the pKa was 8.46. For the molecule `O=C(O)c1ccc(Cl)cc1Cl`, the pKa (acidic group) was determined as 2.74. For the setting “basic group”, `Cc1ccnc(NS(=O)(=O)c2ccccc2)n1` gave a pKa of 0.59. The same measure, in the same setting: as for `Nc1nccnn1`, the figure is 4. On to `Nc1nc(N)[nH+]c(O)n1`, for which the pKa (acidic group) worked out at 4.5. `CC(C)CNCC(=O)c1ccc(O)cc1` displayed a pKa (basic group) of 7.74. On to `Cc1ccc(C)c(O)c1`, for which the pKa (acidic group) was found to be 10.4. For the molecule `Cn1cc/c(=N\N)c2ccccc21`, the pKa (basic group) is 10.6. Where the note is “acidic group”, `O=C1/C(=N\O)CC/C1=N\O` yielded a pKa of 7.95. The molecule `CC1CCn2nnnc2C(C(=O)O)C1` (stereo unspecified) gave a pKa (acidic group) of 3.2. The same measure, in the same setting: as for `Oc1ccc(Cl)cc1C[NH+]1CCCCC1`, the figure is 8.14. Where the note is “basic group”, `NC1(C(=O)[O-])CCCCC1` displayed a pKa of 10.

In the case of `CCCCNCC[NH2+]CCCC`, the pKa (basic group) is 7.46. Take `COc1ccc(N(C)C)cc1`: the pKa (basic group) came to 5.86.

As for `Nc1cccc2nc3ccccc3cc12`, where the note is “basic group”, the pKa amounted to 6.04. With `NNC(=O)CC([NH2+]CCO)C(=O)[O-]` (stereo unspecified), where the note is “basic group”, the pKa is 2.13.

For the molecule `COc1c(O)cccc1CN`, the pKa runs as follows: (acidic group) 10.5; (basic group) 8.89. Consider `CCN(CC)CC(=O)Nc1cc(C)ccc1C`, for which the pKa (basic group) was 7.92. Consider `O=C([O-])c1cc(-c2ccccc2)nnc1NCCN1CCOCC1`, for which the pKa (basic group) was determined as 7.07. The same measure, in the same setting: as for `CC(=O)/N=c1\ccccn1C`, the figure is 7.12. As for `O=C(O)COc1ccccc1[N+](=O)[O-]`, the pKa (acidic group) came out at 2.9. `CC(C#N)(CC(=O)O)c1ccccc1` (stereo unspecified) showed a pKa (acidic group) of 3.99.

Turning to `Cc1ccc(NN=C(C#N)C#N)cc1`, the pKa by setting is: (acidic group) 6.75; (basic group) -0.83.

In the case of `Nn1nnnc1-c1ccccc1`, the pKa (basic group) was -0.62.

For the setting “basic group”, `Nc1ccc2ccc([N+](=O)[O-])cc2c1` had a pKa of 3.13.

Where the note is “acidic group”, `CN(C)c1ccc(NC=S)cc1` had a pKa of 12.

In turn, `COCc1nc2c(n1C)C(=O)c1ncnc([O-])c1C2=O` had a pKa (basic group) of 6.17.

Molecule `C/C(=C\C(C)=N\c1ccccc1)Nc1ccccc1` had a pKa (basic group) of 7.22. Where the note is “acidic group”, `[NH3+]C(CC(=O)O)C(=O)NC(CC(=O)O)C(=O)O` (stereo unspecified) yielded a pKa of 2.7. In turn, `CN(O)C(=O)c1ccccc1` registered a pKa (acidic group) of 8.07. `Cc1nn(-c2ccccc2)c(O)c1-c1ccccc1` had a pKa (acidic group) of 11.9. As for `Nc1ccc2ncccc2c1`, the pKa (basic group) came to 5.63. Same read-out and setting: as for `c1c(CN2CC[NH2+]CC[NH2+]CC2)n[nH]c1CN1CCNCC[NH2+]CC1`, the figure is 6.08. For `Cc1cc(Cc2cc(C)c(O)c(C)c2)c(O)c([N+](=O)[O-])c1`, the pKa (acidic group) was 7.98. Under “basic group”, `CC(=O)N(C)c1cccnc1` had a pKa of 3.52. Same read-out and setting: as for `NC(Cc1n[nH]c2ccccc12)C(=O)[O-]` (stereo unspecified), the figure is 8.95. On to `CN(C)c1ncccn1`, for which, for the setting “basic group”, the pKa was found to be 3.96. Take `[O-]c1nccc2nccnc12`: the pKa (basic group) was found to be 11.1.

Regarding `Cc1cc(-c2ncc[nH]2)nn1C`, the pKa (basic group) was 6.2.

Turning to `O=C(O)Cc1ccc(-c2ccccc2)cc1`, the pKa (acidic group) is 4.46. Under “basic group”, `CN(C)c1ccc2cc3ccc(N(C)C)cc3nc2c1` showed a pKa of 10.4. Where the note is “acidic group”, `c1cc[n+]2c(c1)C[n+]1ccccc1C2` registered a pKa of 8.12.

On to `O=C(O)Cc1ccco1`, for which the pKa (acidic group) came to 3.72.

(Values after the pKa sets of Baltruschat and Czodrowski (2020).)
